Where two headings read alike, the source gives them in different places.
Legend:
[1] = test system: P. falciparum; test: microbe, parasite or virus in culture; set-up: species or system P. falciparum asexual blood stages in human erythrocytes; Blood-stage parasite growth inhibition over one lytic cycle, YOYO-1 parasitemia by flow cytometry; settings: Plasmodium falciparum, Erythrocyte, 48 h, read-out: 48h
Method: (§1) For P. falciparum EC50 calculations, growth assays were performed in 96 well plates containing serial dilution of drugs in triplicate. Media was supplemented with 200 uM IPP as indicated. Growth was initiated with ring-stage parasites (synchronized with 5% sorbitol treatment) at 1% parasitemia and 1% hematocrit. […] Parasitized cells were stained with 50 nM YOYO-1 (Invitrogen) overnight at room temperature and the parasitemia was determined by flow cytometry (BD Accuri C6 Sampler). Data were analyzed by BD Accuri C6 Sampler software. […] A single natural product antibiotic, actinonin, matched our criteria (Figure 1a) ([Gordon et al., 1962]). […] Because isoprenoid precursor biosynthesis is the only essential function of the apicoplast in blood-stage P. falciparum, any disruption of the apicoplast, including complete loss of the organelle, can be rescued by addition of the isoprenoid precursor, isopentenyl pyrophosphate (IPP), in the growth media ([Yeh and DeRisi, 2011]). […] Compared to chloramphenicol, actinonin clearly had more rapid antimalarial activity.

[2] = test system: P. falciparum; test: microbe, parasite or virus in culture; set-up: species or system P. falciparum asexual blood stages in human erythrocytes; Blood-stage parasite growth inhibition over two lytic cycles, YOYO-1 parasitemia by flow cytometry; settings: Plasmodium falciparum, Erythrocyte, 96 h, read-out: 96h
Method: as §1

[3] = target: T1, PfFtsH1 (Plasmodium falciparum, UniProt Q8I526); test: ATP-dependent FITC-casein proteolysis by purified recombinant PfFtsH1, fluorescence; type: biochemical
T1 construct: gene PF3D7_1239700; His6-SUMO-PfFtsH1_91-612-GST (AAA+ ATPase and peptidase domains, lacking transmembrane domain)
T1 sequence (Q8I526 entry or part of it): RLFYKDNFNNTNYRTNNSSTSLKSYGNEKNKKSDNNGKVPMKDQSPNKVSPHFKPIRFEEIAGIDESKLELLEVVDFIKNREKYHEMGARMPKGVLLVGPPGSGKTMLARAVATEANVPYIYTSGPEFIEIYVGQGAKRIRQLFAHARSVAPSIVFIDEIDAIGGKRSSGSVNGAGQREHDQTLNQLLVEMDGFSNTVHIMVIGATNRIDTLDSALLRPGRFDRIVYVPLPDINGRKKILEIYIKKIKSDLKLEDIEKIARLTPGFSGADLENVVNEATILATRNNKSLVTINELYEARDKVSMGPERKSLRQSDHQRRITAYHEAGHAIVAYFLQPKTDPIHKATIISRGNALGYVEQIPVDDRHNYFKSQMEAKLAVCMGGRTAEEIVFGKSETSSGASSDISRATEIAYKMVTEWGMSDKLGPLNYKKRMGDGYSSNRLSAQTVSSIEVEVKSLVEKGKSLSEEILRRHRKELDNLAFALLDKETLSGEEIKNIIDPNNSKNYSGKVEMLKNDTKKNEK

Compound `C[C@H]1COc2c(N3CCN(C)CC3)c(F)cc3c(=O)c(C(=O)O)cn1c23` [levofloxacin] has an EC50 [1] of 70 µM and an EC50 [2] of 16 µM.
For `CC(C)C(=O)OC[C@H]1O[C@@H](n2ccc(N)nc2=O)[C@](C)(F)[C@@H]1OC(=O)C(C)C` [mericitabine], the EC50 [1] was > 200 µM and the EC50 [2] was > 200 µM.
`CCn1cc(C(=O)O)c(=O)c2cc(F)c(N3CCNCC3)nc21` [enoxacin] was tested, and the EC50 [1] was > 50 µM and the EC50 [2] was 5.7 µM.
In the case of `CCCCC[C@H](CC(=O)NO)C(=O)N[C@H](C(=O)N1CCC[C@H]1CO)C(C)C` [actinonin], the EC50 [1] is reported as 3.2 µM and the EC50 [2] is reported as 2.7 µM.
`CCCCC[C@H](CC(N)=O)C(=O)N[C@H](C(=O)N1CCC[C@H]1CO)C(C)C` [actinamide] was tested, and the IC50 [3] was 7.3 µM.
Compound `CO[C@H]1/C=C/O[C@@]2(C)Oc3c(C)c(O)c4c(O)c(c(/C=N/N5CCN(C)CC5)c(O)c4c3C2=O)NC(=O)/C(C)=C\C=C\[C@H](C)[C@H](O)[C@@H](C)[C@@H](O)[C@@H](C)[C@H](OC(C)=O)[C@@H]1C` [rifampin] has an EC50 [1] of 1 µM and an EC50 [2] of 2 µM.
With `CO[C@@H]1[C@@H](OC(N)=O)[C@@H](O)[C@H](Oc2ccc3c(O)c(NC(=O)c4ccc(O)c(CC=C(C)C)c4)c(=O)oc3c2C)OC1(C)C` [novobiocin] the EC50 [1] was 40 µM and the EC50 [2] was 36 µM.
For `Nc1ccn([C@@H]2O[C@H](CO)[C@@H](O)[C@H]2F)c(=O)n1` [2'deoxy-2-F-cytidine], the EC50 [1] was > 200 µM and the EC50 [2] was > 200 µM.
`CCn1cc(C(=O)O)c(=O)c2cc(F)c(N3CCNCC3)cc21` [norfloxacin] was tested, and the EC50 [1] was 40 µM and the EC50 [2] was 10 µM.
In the case of `O=C(O)c1cn(C2CC2)c2cc(N3CCNCC3)c(F)cc2c1=O` [ciprofloxacin], the EC50 [1] is reported as 24 µM and the EC50 [2] is reported as 6 µM.

From publication PMC5576918, “Small molecule inhibition of apicomplexan FtsH1 disrupts plastid biogenesis in human pathogens” (eLife, 2017)
